Measured values as given in the supplement of paper PMC10307832.

Assays:
Assay in all cases: relative viability (nuclei count vs DMSO), 5 days (fraction); higher = more cells survive
Alisertib + Vorinostat = compound: COc1cc(Nc2ncc3c(n2)-c2ccc(Cl)cc2C(c2c(F)cccc2OC)=NC3)ccc1C(=O)O [Alisertib] + O=C(CCCCCCC(=O)Nc1ccccc1)NO [Vorinostat] (partner 1 µM)
Summary of the method: (§1)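 Dosing by pin tool came one day after lung cancer cell lines were seeded in 1536-well plates, using either one drug or a fixed anchor-drug dose plus five library-drug doses (not always all listed) in √10 steps. After 5 days, nuclei were counted on 4× images. Relative viability is treated-well nuclei count divided by vehicle-well nuclei count, and values are medians of duplicate plates.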

Alisertib + Pemetrexed = compound: COc1cc(Nc2ncc3c(n2)-c2ccc(Cl)cc2C(c2c(F)cccc2OC)=NC3)ccc1C(=O)O [Alisertib] + Nc1nc2[nH]cc(CCc3ccc(C(=O)N[C@@H](CCC(=O)O)C(=O)O)cc3)c2c(=O)[nH]1 [Pemetrexed] (partner 0.2 µM)
Summary of the method: as §1

Alisertib + Dasatinib = compound: COc1cc(Nc2ncc3c(n2)-c2ccc(Cl)cc2C(c2c(F)cccc2OC)=NC3)ccc1C(=O)O [Alisertib] + Cc1nc(Nc2ncc(C(=O)Nc3c(C)cccc3Cl)s2)cc(N2CCN(CCO)CC2)n1 [Dasatinib] (partner 0.075 µM)
Summary of the method: as §1

Alisertib + Palbociclib = compound: COc1cc(Nc2ncc3c(n2)-c2ccc(Cl)cc2C(c2c(F)cccc2OC)=NC3)ccc1C(=O)O [Alisertib] + CC(=O)c1c(C)c2cnc(Nc3ccc(N4CCNCC4)cn3)nc2n(C2CCCC2)c1=O [Palbociclib] (partner 0.5 µM)
Summary of the method: as §1

Cell Line | relative viability (Alisertib + Vorinostat; first compound 0.005 µM) | relative viability (Alisertib + Vorinostat; first compound 0.01581 µM) | relative viability (Alisertib + Vorinostat; first compound 0.05 µM) | relative viability (Alisertib + Vorinostat; first compound 0.1581 µM) | relative viability (Alisertib + Vorinostat; first compound 0.5 µM) | relative viability (Alisertib + Pemetrexed; first compound 0.005 µM) | relative viability (Alisertib + Pemetrexed; first compound 0.01581 µM) | relative viability (Alisertib + Pemetrexed; first compound 0.05 µM) | relative viability (Alisertib + Pemetrexed; first compound 0.1581 µM) | relative viability (Alisertib + Pemetrexed; first compound 0.5 µM) | relative viability (Alisertib + Dasatinib; first compound 0.005 µM) | relative viability (Alisertib + Dasatinib; first compound 0.01581 µM) | relative viability (Alisertib + Dasatinib; first compound 0.05 µM) | relative viability (Alisertib + Dasatinib; first compound 0.1581 µM) | relative viability (Alisertib + Dasatinib; first compound 0.5 µM) | relative viability (Alisertib + Palbociclib; first compound 0.005 µM) | relative viability (Alisertib + Palbociclib; first compound 0.01581 µM) | relative viability (Alisertib + Palbociclib; first compound 0.05 µM) | relative viability (Alisertib + Palbociclib; first compound 0.1581 µM) | relative viability (Alisertib + Palbociclib; first compound 0.5 µM)
NCI-H1793 | 0.465 | 0.41 | 0.267 | 0.191 | 0.221 | 0.551 | 0.339 | 0.356 | 0.232 | 0.209 | 0.397 | 0.242 | 0.186 | 0.11 | 0.116 | 0.332 | 0.3 | 0.273 | 0.215 | 0.234
NCI-H1915 | 0.496 | 0.473 | 0.374 | 0.206 | 0.161 | 0.432 | 0.382 | 0.325 | 0.262 | 0.219 | 0.297 | 0.299 | 0.295 | 0.148 | 0.14 | 0.497 | 0.455 | 0.29 | 0.234 | 0.151
NCI-H1944 | 0.573 | 0.52 | 0.339 | 0.183 | 0.188 | 0.579 | 0.662 | 0.564 | 0.246 | 0.18 | 0.196 | 0.217 | 0.218 | 0.113 | 0.113 | 0.33 | 0.357 | 0.27 | 0.187 | 0.159
NCI-H1975 | 0.657 | 0.688 | 0.284 | 0.214 | 0.201 | 0.289 | 0.265 | 0.235 | 0.214 | 0.185 | 0.298 | 0.333 | 0.286 | 0.153 | 0.109 | 0.454 | 0.547 | 0.299 | 0.259 | 0.168
NCI-H1993 | 0.63 | 0.436 | 0.395 | 0.372 | 0.339 | 0.614 | 0.631 | 0.506 | 0.539 | 0.422 | 0.538 | 0.644 | 0.474 | 0.386 | 0.433 | 0.583 | 0.672 | 0.529 | 0.402 | 0.35
NCI-H2009 | 0.684 | 0.699 | 0.234 | 0.204 | 0.134 | 0.959 | 0.987 | 0.724 | 0.475 | 0.168 | 0.259 | 0.292 | 0.211 | 0.141 | 0.129 | 0.171 | 0.199 | 0.117 | 0.124 | 0.123
NCI-H2023 | 0.565 | 0.31 | 0.215 | 0.12 | 0.0981 | 0.192 | 0.222 | 0.177 | 0.152 | 0.101 | 0.561 | 0.492 | 0.35 | 0.167 | 0.0881 | 0.349 | 0.288 | 0.174 | 0.125 | 0.0948
NCI-H2085 | 0.73 | 0.771 | 0.431 | 0.441 | 0.448 | 0.638 | 0.896 | 0.837 | 0.27 | 0.294 | 0.233 | 0.203 | 0.207 | 0.184 | 0.171 | 0.505 | 0.469 | 0.344 | 0.346 | 0.336
